Molecules are shown by their SMILES.

The target of the experiment is T1, Kv1.3 potassium channel (Homo sapiens, UniProt P22001).
T1 construct: expressed in transfected cells
Briefly: Kv1.3 potassium channel blocker activity, automated whole-cell patch clamp (Patchliner). It is filed as cell-based. Particulars: CHO-K1 cells stably expressing Kv1.3; whole cell current inhibition; read-out: Kv1.3_IC50. On the procedure:
The assay described below is used to evaluate the disclosed compound's activities as Kv1.3 potassium channel blockers.
CHO-K1 cells stably expressing Kv1.3 were grown in DMEM containing 10% heat-inactivated FBS, 1 mM Sodium Pyruvate, 2 mM L-Glutamine and G418 (500 μg/ml).
All compounds were dissolved in DMSO at 30 mM.
The currents were evoked by applying 100 ms depolarizing pulses from −90 mV (holding potential) to +40 mV were applied with 0.1 Hz frequency. […] 10 second breaks were used between pulse trains (see Table A below).
Data were sampled at 10 kHz without filtering. Passive leak currents were subtracted online using a P/4 procedure (HEKA Elektronik Dr. Schulze GmbH). […] Total compound incubation time before the next pulse train was not longer than 10 seconds. Peak current inhibition was observed during compound equilibration.
(The patch-clamp technique gives a direct electrical read-out from membranes.)

T1 sequence (P22001 whole entry): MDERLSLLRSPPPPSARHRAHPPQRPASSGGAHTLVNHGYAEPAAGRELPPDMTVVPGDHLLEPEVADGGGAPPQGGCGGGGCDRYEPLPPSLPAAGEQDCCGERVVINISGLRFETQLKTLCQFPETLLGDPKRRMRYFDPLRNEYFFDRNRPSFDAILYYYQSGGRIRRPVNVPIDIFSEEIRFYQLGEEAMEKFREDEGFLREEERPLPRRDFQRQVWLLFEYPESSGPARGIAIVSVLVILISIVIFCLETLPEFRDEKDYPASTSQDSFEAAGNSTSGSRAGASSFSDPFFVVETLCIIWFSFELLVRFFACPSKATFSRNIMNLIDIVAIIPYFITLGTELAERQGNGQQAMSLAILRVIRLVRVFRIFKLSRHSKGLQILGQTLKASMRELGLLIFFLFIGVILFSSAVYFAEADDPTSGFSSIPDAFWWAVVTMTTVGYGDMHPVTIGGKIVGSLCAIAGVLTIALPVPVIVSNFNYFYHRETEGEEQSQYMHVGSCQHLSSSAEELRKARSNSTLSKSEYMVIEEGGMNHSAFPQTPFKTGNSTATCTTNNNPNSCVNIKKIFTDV

With `CC(C)c1cc(O)c([C@H](N)C2CCN(C(=O)[C@H](O)CO)CC2)cc1Cl` [Compound 282, (2R)-1-(4-((R)-amino(5-chloro-2-hydroxy-4-isopropylphenyl)methyl)piperidin-1-yl)-2,3-dihydroxypropan-1-one], the IC50 (in general, the midpoint of a concentration-inhibition curve) is below 30 µM. `N[C@H](c1cc(Cl)c(Cl)cc1O)C1C2CCC1CN(C(=O)[C@H](O)CO)C2` (stereo partly drawn) [Compound 314, (2R)-1-[8-[(S)-amino(4,5-dichloro-2-hydroxyphenyl)methyl]-3-azabicyclo[3.2.1]octan-3-yl]-2,3-dihydroxypropan-1-one Trifluoroacetic Acid]: the IC50 is below 30 µM. The value for `N[C@@H](c1cc(Cl)c(Cl)cc1O)C1CCN(C(=O)c2c[nH]c(=O)[nH]c2=O)CC1` [Compound 252, 5-[4-[(R)-amino(4,5-dichloro-2-hydroxyphenyl)methyl]piperidine-1-carbonyl]-1,3-dihydropyrimidine-2,4-dione formic acid] was below 0.5 µM; that for `Cc1ccc(S(=O)(=O)N2CCC(C(N)c3cc(Cl)c(Cl)cc3O)CC2)cc1` (stereo not shown) [Compound 35, 2-(amino(1-tosylpiperidin-4-yl)methyl)-4,5-dichlorophenol] was below 10 µM; that for `CC1(C)C[C@@H]([C@H](N)c2cc(Cl)c(Cl)cc2O)CCN1` (single isomer, unassigned; diastereoisomer 1) [Compound 72, 2-(amino(2,2-dimethylpiperidin-4-yl)methyl)-4,5-dichlorophenol Trifluoroacetic Acid Diastereoisomer 1] was below 30 µM.

Consider `Cc1cc(O)c([C@H](N)C2CCN(C(=O)c3ccc4c(c3)NC(=O)CC4)CC2)cc1Cl` [Compound 273, 7-[4-[(R)-amino (5-chloro-2-hydroxy-4-methylphenyl)methyl]piperidine-1-carbonyl]-3,4-dihydro-1H-quinolin-2-one trifluoroacetic acid], for which the IC50 is below 10 µM. For the compound `O=S(=O)([C@H]1CCNC1)N1CCC([C@@H](O)c2cc(Cl)c(Cl)cc2O)CC1` (single isomer, unassigned; isomer 1) [Compound 124, 4,5-dichloro-2-(hydroxy(1-(pyrrolidin-3-ylsulfonyl)piperidin-4-yl)methyl)phenol Isomer 1], the 50% inhibitory concentration (IC50) was below 0.5 µM. Take `Nc1cnc(C(=O)N2CCC([C@@H](N)c3cc(Cl)c(Cl)cc3O)CC2)cn1` [Compound 307, 2-[(R)-amino[1-(5-aminopyrazine-2-carbonyl)piperidin-4-yl]methyl]-4,5-dichlorophenol trifluoroacetic acid]: the IC50 is below 10 µM. Turning to `NC(c1cc(Cl)c(Cl)cc1O)C1CCN(C2CCNC2=O)CC1` (stereo not shown) [Compound 65, 3-(4-(amino(4,5-dichloro-2-hydroxyphenyl)methyl)piperidin-1-yl)pyrrolidin-2-one Trifluoroacetic Acid], the IC50 is below 10 µM. Take `Cc1cc(O)c([C@H](N)C2CCN(C(=O)c3ccc4c(c3)CC(=O)N4)CC2)cc1Cl` [Compound 267, 5-[4-[(R)-amino (5-chloro-2-hydroxy-4-methylphenyl)methyl]piperidine-1-carbonyl]-1,3-dihydroindol-2-one trifluoroacetic acid]: the IC50 was below 0.5 µM. Turning to `CC(=O)N1CCC(C(c2cc(Cl)c(Cl)cc2O)N2CCCC2)CC1` (stereo not shown) [Compound 23, 1-(4-((4,5-dichloro-2-hydroxyphenyl)(pyrrolidin-1-yl)methyl)piperidin-1-yl)ethanone Trifluoroacetic Acid], the IC50 was below 10 µM. For `N#Cc1cc(O)c([C@H](N)C2CCN(C(=O)[C@H](O)CO)CC2)cc1Cl` [Compound 286, 4-[(R)-amino([1-[(2R)-2,3-dihydroxypropanoyl]piperidin-4-yl])methyl]-2-chloro-5-hydroxybenzonitrile Trifluoroacetic Acid], the IC50 was below 10 µM. In the case of `O=C([C@H]1CCNC1)N1CCC[C@@H]([C@H](O)c2c(O)ccc(Cl)c2Cl)CC1` (single isomer, unassigned; isomer 1) [Compound 322], the IC50 is below 10 µM.

Source of the values: patent US20230023559A1, “ARYLMETHYLENE HETEROCYCLIC COMPOUNDS AS KV1.3 POTASSIUM SHAKER CHANNEL BLOCKERS” (D. E. Shaw Research, LLC, priority 2019, published 2023).
